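96-well plates; 48 h exposure; 5 concentrations. Endpoints by linear interpolation between flanking doses. Not reached: highest tested concentration assigned. GI50 = concentration required for 50% inhibition of growth.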 Calls of active or inactive are those of the source. Rule as the data show it: active = GI50 up to about 1.1 µM and inactive = higher.
Tests used:
Assay in all cases: growth of human tumour cells (NCI), 48 h
IGROV-1 = tested on: IGROV-1
EKVX = tested on: EKVX
MOLT-4 = tested on: MOLT-4
786-0 = tested on: 786-0
HT-29 = tested on: HT-29
RPMI-8226 = tested on: RPMI-8226
UACC-257 = tested on: UACC-257
DLD-1 = tested on: DLD-1
SW-620 = tested on: SW-620
NCI-H460 = tested on: NCI-H460
SF-539 = tested on: SF-539
OVCAR-3 = tested on: OVCAR-3
UACC-62 = tested on: UACC-62
HOP-62 = tested on: HOP-62
SK-MEL-5 = tested on: SK-MEL-5
NCI-H226 = tested on: NCI-H226
HCT-116 = tested on: HCT-116
SNB-75 = tested on: SNB-75
SR = tested on: SR
CCRF-CEM = tested on: CCRF-CEM
A498 = tested on: A498
SN12C = tested on: SN12C
OVCAR-5 = tested on: OVCAR-5
SNB-19 = tested on: SNB-19
ACHN = tested on: ACHN
SK-MEL-28 = tested on: SK-MEL-28
HOP-92 = tested on: HOP-92
UO-31 = tested on: UO-31
NCI-H522 = tested on: NCI-H522
SK-MEL-2 = tested on: SK-MEL-2
M19-MEL = tested on: M19-MEL
RXF 393 = tested on: RXF 393
HCC 2998 = tested on: HCC 2998
SF-295 = tested on: SF-295
KM12 = tested on: KM12
K562 = tested on: K562
U-251 = tested on: U-251
TK-10 = tested on: TK-10
COLO 205 = tested on: COLO 205
KM-20L2 = tested on: KM-20L2
SF-268 = tested on: SF-268
SK-OV-3 = tested on: SK-OV-3
CAKI-1 = tested on: CAKI-1
HL-60 = tested on: HL-60
LOX IMVI = tested on: LOX IMVI
DMS-273 = tested on: DMS-273
SNB-78 = tested on: SNB-78
OVCAR-4 = tested on: OVCAR-4
HCT-15 = tested on: HCT-15
Malme-3M = tested on: Malme-3M
HOP-18 = tested on: HOP-18
M14 = tested on: M14
A549 = tested on: A549
DMS-114 = tested on: DMS-114
LXFL 529 = tested on: LXFL 529
NCI-H23 = tested on: NCI-H23
OVCAR-8 = tested on: OVCAR-8
XF498 = tested on: XF498

SMILES: CCCC(=O)N[C@H]1C2C3CC4C5CC(C42)C1(C)C53 (some centres not stated)
- GI50 (IGROV-1): > 100 µM (inactive)
- GI50 (EKVX): > 100 µM (inactive)
- GI50 (MOLT-4): > 100 µM (inactive)
- GI50 (786-0): > 100 µM (inactive)
- GI50 (HT-29): > 100 µM (inactive)
- GI50 (RPMI-8226): > 100 µM (inactive)
- GI50 (UACC-257): > 100 µM (inactive)
- GI50 (DLD-1): > 100 µM (inactive)
- GI50 (SW-620): > 100 µM (inactive)
- GI50 (NCI-H460): > 100 µM (inactive)
- GI50 (SF-539): > 100 µM (inactive)
- GI50 (OVCAR-3): > 100 µM (inactive)
- GI50 (UACC-62): > 100 µM (inactive)
- GI50 (HOP-62): > 100 µM (inactive)
- GI50 (SK-MEL-5): > 100 µM (inactive)
- GI50 (NCI-H226): > 100 µM (inactive)
- GI50 (HCT-116): > 100 µM (inactive)
- GI50 (SNB-75): > 100 µM (inactive)
- GI50 (SR): > 100 µM (inactive)
- GI50 (CCRF-CEM): > 100 µM (inactive)
- GI50 (A498): > 100 µM (inactive)
- GI50 (SN12C): > 100 µM (inactive)
- GI50 (OVCAR-5): > 100 µM (inactive)
- GI50 (SNB-19): > 100 µM (inactive)
- GI50 (ACHN): > 100 µM (inactive)
- GI50 (SK-MEL-28): > 100 µM (inactive)
- GI50 (HOP-92): > 100 µM (inactive)
- GI50 (UO-31): > 100 µM (inactive)
- GI50 (NCI-H522): > 100 µM (inactive)
- GI50 (SK-MEL-2): > 100 µM (inactive)
- GI50 (M19-MEL): > 100 µM (inactive)
- GI50 (RXF 393): > 100 µM (inactive)
- GI50 (HCC 2998): > 100 µM (inactive)
- GI50 (SF-295): > 100 µM (inactive)
- GI50 (KM12): > 100 µM (inactive)
- GI50 (K562): > 100 µM (inactive)
- GI50 (U-251): > 100 µM (inactive)
- GI50 (TK-10): > 100 µM (inactive)
- GI50 (COLO 205): > 100 µM (inactive)
- GI50 (KM-20L2): > 100 µM (inactive)
- GI50 (SF-268): > 100 µM (inactive)
- GI50 (SK-OV-3): > 100 µM (inactive)
- GI50 (CAKI-1): > 100 µM (inactive)
- GI50 (HL-60): > 100 µM (inactive)
- GI50 (LOX IMVI): > 100 µM (inactive)
- GI50 (DMS-273): > 100 µM (inactive)
- GI50 (SNB-78): > 100 µM (inactive)
- GI50 (OVCAR-4): > 100 µM (inactive)
- GI50 (HCT-15): > 100 µM
- GI50 (Malme-3M): > 100 µM (inactive)
- GI50 (HOP-18): > 100 µM (inactive)
- GI50 (M14): > 100 µM (inactive)
- GI50 (A549): > 100 µM (inactive)

SMILES: NC(=O)Cn1c(=O)[nH]c(=O)c2[nH]cnc21
- GI50 (IGROV-1): > 100 µM (inactive)
- GI50 (EKVX): > 100 µM (inactive)
- GI50 (MOLT-4): > 100 µM (inactive)
- GI50 (786-0): > 100 µM (inactive)
- GI50 (HT-29): > 100 µM (inactive)
- GI50 (UACC-257): > 100 µM (inactive)
- GI50 (SW-620): > 100 µM (inactive)
- GI50 (NCI-H460): > 100 µM (inactive)
- GI50 (SF-539): > 100 µM (inactive)
- GI50 (OVCAR-3): > 100 µM (inactive)
- GI50 (UACC-62): > 100 µM (inactive)
- GI50 (HOP-62): > 100 µM (inactive)
- GI50 (SK-MEL-5): > 100 µM (inactive)
- GI50 (NCI-H226): > 100 µM (inactive)
- GI50 (HCT-116): > 100 µM (inactive)
- GI50 (SNB-75): > 100 µM (inactive)
- GI50 (SR): > 100 µM (inactive)
- GI50 (CCRF-CEM): > 100 µM (inactive)
- GI50 (A498): > 100 µM (inactive)
- GI50 (SN12C): > 100 µM (inactive)
- GI50 (OVCAR-5): > 100 µM (inactive)
- GI50 (DMS-114): > 100 µM (inactive)
- GI50 (SNB-19): > 100 µM (inactive)
- GI50 (ACHN): > 100 µM (inactive)
- GI50 (SK-MEL-28): > 100 µM (inactive)
- GI50 (LXFL 529): > 100 µM (inactive)
- GI50 (NCI-H23): > 100 µM (inactive)
- GI50 (UO-31): > 100 µM (inactive)
- GI50 (NCI-H522): > 100 µM (inactive)
- GI50 (SK-MEL-2): > 100 µM (inactive)
- GI50 (M19-MEL): > 100 µM (inactive)
- GI50 (RXF 393): > 100 µM (inactive)
- GI50 (HCC 2998): > 100 µM (inactive)
- GI50 (KM12): > 100 µM (inactive)
- GI50 (K562): > 100 µM (inactive)
- GI50 (U-251): > 100 µM (inactive)
- GI50 (TK-10): > 100 µM (inactive)
- GI50 (COLO 205): > 100 µM (inactive)
- GI50 (KM-20L2): > 100 µM (inactive)
- GI50 (SF-268): > 100 µM (inactive)
- GI50 (SK-OV-3): > 100 µM (inactive)
- GI50 (HL-60): > 100 µM (inactive)
- GI50 (LOX IMVI): > 100 µM (inactive)
- GI50 (DMS-273): > 100 µM (inactive)
- GI50 (HCT-15): > 100 µM
- GI50 (Malme-3M): > 100 µM (inactive)
- GI50 (HOP-18): > 100 µM (inactive)
- GI50 (OVCAR-8): > 100 µM (inactive)
- GI50 (M14): > 100 µM (inactive)
- GI50 (A549): > 100 µM (inactive)

SMILES: O=C(NC1C=Nc2ccc([N+](=O)[O-])cc2NC1=O)c1cc(Cl)cc([N+](=O)[O-])c1 (configuration not stated)
- GI50 (IGROV-1): > 100 µM (inactive)
- GI50 (EKVX): 94.8 µM (inactive)
- GI50 (MOLT-4): 41.6 µM (inactive)
- GI50 (HT-29): > 100 µM (inactive)
- GI50 (RPMI-8226): 44.2 µM (inactive)
- GI50 (UACC-257): > 100 µM (inactive)
- GI50 (DLD-1): > 100 µM (inactive)
- GI50 (SW-620): > 100 µM (inactive)
- GI50 (NCI-H460): > 100 µM (inactive)
- GI50 (SF-539): > 100 µM (inactive)
- GI50 (UACC-62): 44.2 µM (inactive)
- GI50 (HOP-62): > 100 µM (inactive)
- GI50 (SK-MEL-5): > 100 µM (inactive)
- GI50 (NCI-H226): > 100 µM (inactive)
- GI50 (HCT-116): > 100 µM (inactive)
- GI50 (SNB-75): > 100 µM (inactive)
- GI50 (SR): 72.3 µM (inactive)
- GI50 (CCRF-CEM): 20.8 µM (inactive)
- GI50 (A498): > 100 µM (inactive)
- GI50 (SN12C): > 100 µM (inactive)
- GI50 (OVCAR-5): > 100 µM (inactive)
- GI50 (DMS-114): 19.7 µM (inactive)
- GI50 (SNB-19): > 100 µM (inactive)
- GI50 (ACHN): > 100 µM (inactive)
- GI50 (SK-MEL-28): > 100 µM (inactive)
- GI50 (LXFL 529): > 100 µM (inactive)
- GI50 (HOP-92): > 100 µM (inactive)
- GI50 (NCI-H23): > 100 µM (inactive)
- GI50 (UO-31): > 100 µM (inactive)
- GI50 (NCI-H522): 8.65 µM (inactive)
- GI50 (SK-MEL-2): > 100 µM (inactive)
- GI50 (M19-MEL): > 100 µM (inactive)
- GI50 (RXF 393): > 100 µM (inactive)
- GI50 (HCC 2998): > 100 µM (inactive)
- GI50 (SF-295): > 100 µM (inactive)
- GI50 (KM12): 54.3 µM (inactive)
- GI50 (K562): 38.8 µM (inactive)
- GI50 (U-251): > 100 µM (inactive)
- GI50 (TK-10): > 100 µM (inactive)
- GI50 (COLO 205): 59.3 µM (inactive)
- GI50 (KM-20L2): > 100 µM (inactive)
- GI50 (SF-268): > 100 µM (inactive)
- GI50 (SK-OV-3): > 100 µM (inactive)
- GI50 (CAKI-1): > 100 µM (inactive)
- GI50 (HL-60): 12.9 µM (inactive)
- GI50 (LOX IMVI): > 100 µM (inactive)
- GI50 (DMS-273): 99.5 µM (inactive)
- GI50 (SNB-78): > 100 µM (inactive)
- GI50 (OVCAR-4): > 100 µM (inactive)
- GI50 (HCT-15): > 100 µM
- GI50 (OVCAR-8): > 100 µM (inactive)
- GI50 (M14): > 100 µM (inactive)
- GI50 (XF498): > 100 µM (inactive)
- GI50 (A549): > 100 µM (inactive)

— ChEMBL document CHEMBL1201862, “PubChem BioAssay data set” (2004)
